Laboratory results from PubChem BioAssay AID1918946 (Molecular Pharmacology Branch, DTP, NCI, 2023).
“And” between values parts separate entries of the source, which are not always exact repeats. Identical values can stand only once. Each block holds one molecule with its values, some of them ahead of it.

Test system: 885512-296-R-J2-PDC complex spheroid viability
Experiment: Anticancer human tumor 885512-296-R-J2-PDC patient-derived breast carcinoma cell line growth inhibition
Details: for viability, T/C: stronger effect = lower value
Description: Multicellular complex tumor spheroid response to LSD1 Inhibitor Iadademstat in combination with a variety of drugs and investigational agents in selected tumor cell lines
The current study was undertaken to assess response to LSD1 inhibitors in combination with standard-of-care drugs and investigational agents in solid tumor complex spheroid models as well as in the K-562 leukemia. Complex spheroids include a stromal component modeled by human endothelial cells (HUVEC) and fibroblasts modeled by human mesenchymal stem cells (MSCs). The concentration ranges selected for each drug and investigational agent were based upon clinically achievable concentrations if the clinical Cmax of the agent was known.
Compounds. The drugs and investigational agents used in this study are listed on Table 1. All of the agents used, including staurosporine (NSC755774) and gemcitabine (NSC613327), were obtained from the Developmental Therapeutics Program, NCI. FDA-approved anticancer drugs are available from the NCI at http://dtp.nci.nih.gov/branches/dscb/oncology_drugset_explanation.html. Drugs and investigational agents were >95% pure by proton nuclear magnetic resonance (NMR) and liquid chromatography/mass spectrometry (LC/MS). Stock solutions were prepared at 400x in DMSO, stored at -70 degrees C, and diluted in fresh medium prior to their use. The final concentration of DMSO in cell culture wells never exceeded 0.25% (v/v). The FDA-approved anticancer drug set is available from the Developmental Therapeutics Program at https://dtp.cancer.gov/organization/dscb/obtaining/available_plates.htm. All drugs and investigational agents were tested over a range starting from a high concentration at or near the clinical Cmax and decreasing in half-log increments. If the clinical Cmax for an agent had not been determined, the highest concentration tested was 10 microM.
Cell Lines. The patient-derived cancer cell (PDC) lines: 292921-168-R-J2-PDC, K24384-001-R-PDC, and 521955-158-R2-J5-PDC pancreatic carcinomas, 556581-035-R-J1 ovarian carcinoma, 324938-238-R-J1-PDC, 855422-203-R-J1-PDC and 883617-216-R-J1-PDC urothelial bladder carcinomas, 743489-274-T-PDC renal cell carcinoma, 138582-R-J1 Merkel cell tumor, K60290-347-R-J1 and K57222-313-R-J1-PDC glioblastomas, 653999-131-R-J2-PDC, LG0703-F948-PDC, and 349418-098-R-PDC non-small cell lung carcinomas, 885512-296-R-J2-PDC, 171881-019-R-J1-PDC breast carcinomas and 186277-243-T-J2-PDC and 233499-124-R-J2-PDC colon carcinomas were obtained from the NCI Patient-Derived Models Repository (PDMR, https://pdmr.cancer.gov). The established cell lines NCI/ADR-RES (RRID:CVCL_14520 and OVCAR-5 (RRID:CVCL_1628) ovarian carcinomas, 786-O (RRID:CVCL_1051) and A498 (RRID:CVCL_A498) renal cell carcinoma, NCI-H211 (ATCC, cat. CRL-5824; RRID:CVCL_1529), NCI-H196 (ATCC, cat. CRL-5823, RRID:CVCL_1509), SW 1271 (ATCC, cat. CRL-2177, RRID:CVCL_1716) and NCI-H1876 (ATCC, cat. CRL-5902, RRID:CVCL_1503) small cell lung carcinomas, MDA-MB-231 (RRID:CVCL_0062) and MDA-MB-468 (RRID:CVCL_0419)breast carcinomas (10-12). Pooled donor human umbilical vein endothelial cells (HUVEC, Lonza, cat. CC-2519) and human mesenchymal stem cells (hMSC, Lonza, cat. PT-2501) were purchased from Lonza (Walkersville, MD).
Cell Culture. All cells were maintained in an incubator at 37 degrees C and 5% CO2 with 95% humidity. The PDC lines were cultured according to standard operating procedures established by the NCI PDMR (https://pdmr.cancer.gov). Briefly all PDCs were thawed and cultured in Matrigel-coated flasks prepared with a working solution of 1X Ham's F-12 nutrient mix, without supplementation (Invitrogen, Waltham, MA, cat. 11765054), 100 U/mL penicillin-streptomycin (Invitrogen, cat. 15140122), and 2.5% Matrigel (Corning Inc., Corning, NY, cat. 354248) for the first three passages. […]

[1] = curve of first compound, second compound 0.1 µM
[2] = curve of first compound, second compound 0.316 µM
[3] = curve of first compound, second compound 1 µM
[4] = curve of first compound, second compound 3.16 µM
[5] = curve of first compound, second compound 10 µM
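Also: spheroids exposed to agents for 7 days before viability read.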

SMILES: CC1(C)CCC(CN2CCN(c3ccc(C(=O)NS(=O)(=O)c4ccc(NCC5CCOCC5)c([N+](=O)[O-])c4)c(Oc4cnc5[nH]ccc5c4)c3)CC2)=C(c2ccc(Cl)cc2)C1 + NC1CCC(NC2CC2c2ccccc2)CC1
IC50 [1]: 4990 nM | IC50 [2]: 4830 nM | IC50 [3]: 4900 nM | IC50 [4]: 4940 nM | IC50 [5]: 3840 nM | viability, T/C (second compound 0.1 µM, first compound 0.0316 µM): 106% | viability, T/C (second compound 0.1 µM, first compound 0.1 µM): 109% | viability, T/C (second compound 0.1 µM, first compound 0.316 µM): 115% | viability, T/C (second compound 0.1 µM, first compound 1 µM): 98.9% | viability, T/C (second compound 0.1 µM, first compound 3.16 µM): 72.8% | viability, T/C (second compound 0.1 µM, first compound 10 µM): 15.8% | viability, T/C (second compound 0.316 µM, first compound 0.0316 µM): 112% | viability, T/C (second compound 0.316 µM, first compound 0.1 µM): 116% | viability, T/C (second compound 0.316 µM, first compound 0.316 µM): 120% | viability, T/C (second compound 0.316 µM, first compound 1 µM): 90.1% | viability, T/C (second compound 0.316 µM, first compound 3.16 µM): 72.2% | viability, T/C (second compound 0.316 µM, first compound 10 µM): 16% | viability, T/C (second compound 1 µM, first compound 0.0316 µM): 110% | viability, T/C (second compound 1 µM, first compound 0.1 µM): 115% | viability, T/C (second compound 1 µM, first compound 0.316 µM): 116% | viability, T/C (second compound 1 µM, first compound 1 µM): 93.4% | viability, T/C (second compound 1 µM, first compound 3.16 µM): 73.1% | viability, T/C (second compound 1 µM, first compound 10 µM): 14.7% | viability, T/C (second compound 3.16 µM, first compound 0.0316 µM): 111% | viability, T/C (second compound 3.16 µM, first compound 0.1 µM): 107% | viability, T/C (second compound 3.16 µM, first compound 0.316 µM): 114% | viability, T/C (second compound 3.16 µM, first compound 1 µM): 98.7% | viability, T/C (second compound 3.16 µM, first compound 3.16 µM): 71% | viability, T/C (second compound 3.16 µM, first compound 10 µM): 17.4% | viability, T/C (second compound 10 µM, first compound 0.0316 µM): 84.3% | viability, T/C (second compound 10 µM, first compound 0.1 µM): 82.8% | viability, T/C (second compound 10 µM, first compound 0.316 µM): 77.9% | viability, T/C (second compound 10 µM, first compound 1 µM): 87.4% | viability, T/C (second compound 10 µM, first compound 3.16 µM): 56.2% | viability, T/C (second compound 10 µM, first compound 10 µM): 19.9%

IC50 (curve of compound): 50.5 nM and 47 nM
SMILES: COc1cc(C2c3cc4c(cc3C(OC3OC5COC(C)OC5C(O)C3O)C3COC(=O)C23)OCO4)cc(OC)c1O (configuration not stated)
viability, T/C (compound 0.00949 µM): 86.4% and 69.3% | viability, T/C (compound 0.03 µM): 64.5% and 70.5% | viability, T/C (compound 0.0949 µM): 32.7% and 18.8% | viability, T/C (compound 0.3 µM): 10.8% and 4.99% | viability, T/C (compound 0.949 µM): 6.14% and 3.49% | viability, T/C (compound 3 µM): 7.43% and 2.68%

SMILES: O=C(C=Cc1cccc(S(=O)(=O)Nc2ccccc2)c1)NO + NC1CC1c1ccc(-c2cccc(O)c2)cc1
IC50 [1]: > 3000 nM | IC50 [2]: 41.9 nM | IC50 [3]: 71.5 nM | IC50 [4]: 39.1 nM | IC50 [5]: 19.5 nM | viability, T/C (second compound 0.1 µM, first compound 0.00949 µM): 104% | viability, T/C (second compound 0.1 µM, first compound 0.03 µM): 66.5% | viability, T/C (second compound 0.1 µM, first compound 0.0949 µM): 26.4% | viability, T/C (second compound 0.1 µM, first compound 0.3 µM): 15.9% | viability, T/C (second compound 0.1 µM, first compound 0.949 µM): 2.01% | viability, T/C (second compound 0.1 µM, first compound 3 µM): 136% | viability, T/C (second compound 0.316 µM, first compound 0.00949 µM): 106% | viability, T/C (second compound 0.316 µM, first compound 0.03 µM): 61.2% | viability, T/C (second compound 0.316 µM, first compound 0.0949 µM): 23.3% | viability, T/C (second compound 0.316 µM, first compound 0.3 µM): 12% | viability, T/C (second compound 0.316 µM, first compound 0.949 µM): 2.58% | viability, T/C (second compound 0.316 µM, first compound 3 µM): 116% | viability, T/C (second compound 1 µM, first compound 0.00949 µM): 96.3% | viability, T/C (second compound 1 µM, first compound 0.03 µM): 73.6% | viability, T/C (second compound 1 µM, first compound 0.0949 µM): 26.6% | viability, T/C (second compound 1 µM, first compound 0.3 µM): 13.9% | viability, T/C (second compound 1 µM, first compound 0.949 µM): 1.94% | viability, T/C (second compound 1 µM, first compound 3 µM): 127% | viability, T/C (second compound 3.16 µM, first compound 0.00949 µM): 92.1% | viability, T/C (second compound 3.16 µM, first compound 0.03 µM): 53.6% | viability, T/C (second compound 3.16 µM, first compound 0.0949 µM): 26.4% | viability, T/C (second compound 3.16 µM, first compound 0.3 µM): 14.4% | viability, T/C (second compound 3.16 µM, first compound 0.949 µM): 1.95% | viability, T/C (second compound 3.16 µM, first compound 3 µM): 109% | viability, T/C (second compound 10 µM, first compound 0.00949 µM): 62.8% | viability, T/C (second compound 10 µM, first compound 0.03 µM): 42.4% | viability, T/C (second compound 10 µM, first compound 0.0949 µM): 16.9% | viability, T/C (second compound 10 µM, first compound 0.3 µM): 8.77% | viability, T/C (second compound 10 µM, first compound 0.949 µM): 0.61% | viability, T/C (second compound 10 µM, first compound 3 µM): 82.6%
